# In patent US20220228120A1, “Cardiomyocyte Compositions and Use Thereof” (UNIVERSITY HEALTH NETWORK, priority 2019, published 2022):
# How the values were obtained:
# Assay type in all cases: cell-based, human
# hPSC-derived atrial CMs = experiment: Seahorse FAO Cell Mito stress test (OCR), atrial CMs; conditions: ETO 40 μM
# [1] = tested on: hPSC-derived compact cardiomyocytes; experiment: Seahorse XF FAO Cell Mito stress test (OCR), compact cardiomyocytes; conditions: ETO 40 μM, mature cells
# mature compact CMs [2] = experiment: In vitro pathological stimuli model: ECAR by Seahorse XF glycolysis assay
# Method: For the Seahorse™ XF FAO assay, a few EBs were plated onto an XFe24 cell culture microplate coated by Matrigel™ 48 hours prior to the assay. 24 hours prior to the assay, replace the culture medium with substrate-limited medium containing 0.5 mM glucose (Sigma), 1.0 mM Glutamine (Life technology), 0.5 mM Carnitine (Sigma), and 1% Fetal Bovine Serum (Wisent) in DMEM no glucose medium (ThermoFisher). 45 mins prior to the assay, wash the cells two times with FAO assay medium, add 375 μl/well FAO assay medium to the cells and incubate for 45 mins at 37 C. Load the assay cartridge with Seahorse™ XF Cell Mito Stress Test compounds (2 μM oligomycin, 5 μM FCCP, 0.5 μM rotenone/0.5 μM antimycin A). […] After the measurement of OCR, EBs are dissociated and counted the cell number in each well. […] After the measurement of ECAR, EBs are dissociated and counted the cell number in each well. […]
# To induce a pathological response in the mature CMs, we cultured them in the presence of isoproterenol (100 μM), a small molecule adrenergic agonist in a hypoxic (5% O2) environment, in low glucose containing medium with Palmitate (200 μM) for 6 days (FIG. 8B). […] To assess the glycolytic flux in these cells, we measured the extracellular acidification rate (ECAR) as an index of glycolytic activity using the Seahorse™ XF assay (Mookerjee and Brand. J Vis Exp. (2015) e53464).
# mature and immature CMs [3] = experiment: In vitro pathological stimuli model: Nile Red lipid accumulation; conditions: treated populations
# Method: To quantify the lipid droplets, Cayman's Lipid Droplets Fluorescence Assay Kit (Cayman) was used. After the EBs were dissociated as described above, cells were fixed by Fixative Solution for 10 mins at room temperature. Cells were washed with Assay Buffer and stained with the Nile Red Staining Solution at room temperature for 15 mins. Cells were washed with Assay Buffer and analyzed with filter sets to detect FITC using the LSR II Flow cytometer (BD PharMingen™). Data were analyzed using FlowJo™ software (Tree Star).
# (§1) To induce a pathological response in the mature CMs, we cultured them in the presence of isoproterenol (100 μM), a small molecule adrenergic agonist in a hypoxic (5% O2) environment, in low glucose containing medium with Palmitate (200 μM) for 6 days (FIG. 8B). Immature control cells were treated under the same conditions. […] (FIG. 8C). To assess the glycolytic flux in these cells, we measured the extracellular acidification rate (ECAR) as an index of glycolytic activity using the Seahorse™ XF assay (Mookerjee and Brand. J Vis Exp. (2015) e53464).
# mature and immature CMs [4] = experiment: In vitro pathological stimuli model: CASP9 expression and Annexin V apoptosis assay
# Method: After the culture in the pathological condition for 6 days, the EBs were dissociated as described above. To detect the apoptosis following the pathological stimuli, TACS® Annexin V assay (TREVIGEN) was performed by flowcytometry. Cells were washed with PBS and stained with Annexin V-FITC for 15 mins at room temperature. Add Binding Buffer to samples and process by flowcytometry. Stained cells were analyzed using the LSR II Flow cytometer (BD). Data were analyzed using FlowJo™ software (Tree Star).
# as §1
# mature compact CMs [5] = experiment: In vitro pathological stimuli model (hypoxia+ISO): RT-qPCR
# Method: Total RNA from samples was isolated using RNAqueous™-micro Kit including RNase-free DNase treatment (invitrogen). RNA from dissected ventricular and atrial tissue of human fetal hearts was isolated using the TRIzol® method (ThermoFisher) and treated with DNase (Ambion®). Isolated RNA was reverse transcribed into cDNA using oligo (dT) primers and random hexamers and iScript™ Reverse Transcriptase (ThermoFisher). QRT-PCR was performed on an EP Real-Plex MasterCycler® (Eppendorf®) using QuantiFast® SYBR Green PCR kit (QIAGEN). The copy number of each gene relative to the house keeping gene TBP.
# as §1
smiles,measurement,setting,value
"CCOC(=O)[C@@]1(CCCCCCOc2ccc(Cl)cc2)CO1 [ETO, etomoxir]","mitochondrial oxidation, atrial CMs",hPSC-derived atrial CMs,blocked
same,mitochondrial oxidation,[1],blocked
"O=CC[C@@H](O)[C@H](O)[C@H](O)CO [2-DG, 2-deoxy-glucose]",ECAR following injection,"mature compact CMs [2]; mature CMs exposed to the pathological stimuli, 2-DG 100 mM",rapid decrease
CC(C)NCC(O)c1ccc(O)c(O)c1 (stereo not shown) [isoproterenol],glycolytic activity (ECAR),"mature compact CMs [2]; isoproterenol 100 μM, 5% O2, 6 days, mature CMs",significantly upregulated
same,lipid accumulation (Nile red),mature and immature CMs [3],increases
same,"apoptosis (CASP9, Annexin V^+ cells)",mature and immature CMs [4]; immature population,not in the immature population
same,"apoptosis (CASP9, Annexin V^+ cells)",mature and immature CMs [4]; mature population,induced apoptosis
same,"expression of glycolysis-related genes GLUT1, GAPDH and LDHA","mature compact CMs [5]; isoproterenol 100 μM, 5% O2, low glucose with Palmitate 200 μM, 6 days, mature CMs",upregulation
same,"expression of CD36, GPD1 and PLIN2",mature compact CMs [5]; mature CMs under the pathological stimuli,upregulated
same,expression of hormone sensitive lipase HSL,mature compact CMs [5]; treated mature CMs,downregulated
